Reference: US9932556B2, “Method for in vitro differentiation of blood circulating cells into neuronal-like cells and applications thereof” (Centre National de la Recherche Scientifique (CNRS), priority 2013, dated 2018)
Where two headings read alike, the source gives them in different places.

Assays:
[1] = tested on: pluripotent macrophages; test: in vitro differentiation of monocytes-derived pluripotent macrophages into neuronal-like cells; conditions: for effect on cells of increased concentration or number of doses: concentration increased above the recommended ones, or number of doses increased
Procedure: (§1) Isolated monocytes were centrifuged and resuspended in DMEM/10% FBS at a concentration of 550 cells/ml. M-CSF (Macrophage colony-stimulating factor) was added to resuspended cells at a concentration of 1:2000 with a stock solution at 0.1 mg/ml.
(§2) 1.2 million monocytes were plated per each 9.6 cm^2 well of a 6-well plate, 550,000 monocytes per each 3.1 cm^2 well of a 12-well plate, and 6 million monocytes per each 25 cm^2 flask. To ensure that monocytes became confluent and evenly distributed, and thus maintained a good differentiation rate, flasks and plates remained horizontal throughout the protocol, plating was done slowly by gently releasing monocytes from the pipette. Plated cells were left at room temperature for at least 15 min so that cells became fully attached to the surface of the plates or flasks, and subsequently incubated at 37° C. with 5% CO2 until day 4.
(§3) Once the tubes of steps e) and f) were at 37° C., the growth factor BHA (butylated hydroxyanizole) was added to the culture medium of monocytes at a final concentration of 50 nM, as follows: • g) adding 10 μl of 100 mM BHA (0.0089 grams of BHA+500 μL ethanol) to the 10 ml of DMEM/10% FBS of step e), thereby obtaining a 100 μM BHA/DMEM solution. Then diluting 10 μl of this 100 μM solution with a further 10 ml of DMEM/10% FBS heated at 37° C., thereby obtaining a 100 nM BHA/DMEM solution; • h) discarding the medium of the 6- and 12-well plates containing the monocytes isolated from the same subject as the PBMCs of step b); • i) adding the BHA/DMEM solution and the conditioned medium to each well of the plates in a 1:1 ratio, i.e.: • 1.5 ml of the 100 nM BHA/DMEM of step g) and 1.5 ml of the PBMCs conditioned medium of step f), for each well of a 6-well plate, and • 1 ml of the 100 nM BHA/DMEM of step g) and 1 ml of the PBMCs conditioned medium of step f), for each well of a 12-well plate; • j) incubating the plates at 37° C. with 5% CO2 until day 10. […]

[2] = tested on: pluripotent macrophages
Procedure: as §1, §2, §3

Compound | effect on cells of increased concentration or number of doses [1] | further results
COc1ccc(O)c(C(C)(C)C)c1 [BHA, Butylated hydroxyanisole] | damaged the cells | 
CC1=C(/C=C/C(C)=C/C=C/C(C)=C/C(=O)O)C(C)(C)CCC1 [RA, Retinoic Acid] | damaged the cells | 
IGF-1: Recombinant human Insulin Growth Factor-1 (Peprotech) |  | effect on cells of increased concentration or number of doses [2]: damaged the cells
IGF-2: Insulin growth factor-2, exogenous factor tested as replacement |  | cell viability ([1]; replacing IGF-1 by this factor): did not improve cell viability
